Experiments:
Type in all cases: functional
MCF7 [1] = experiment: Cytotoxicity against human MCF7 cells assessed as cell growth at 10 uM incubated for 48 hrs by sulforhodamine B assay relative to control; settings: MCF7, 48 h, read-out: Activity
SNB-19 [2] = experiment: Cytotoxicity against human SNB19 cells assessed as cell growth at 0.1 uM incubated for 48 hrs by sulforhodamine B assay relative to control; settings: SNB-19, 48 h, read-out: Activity
SNB-19 [3] = experiment: Cytotoxicity against human SNB19 cells assessed as cell growth at 10 uM incubated for 48 hrs by sulforhodamine B assay relative to control; settings: SNB-19, 48 h, read-out: Activity
HOP-92 = experiment: Cytotoxicity against human HOP92 cells assessed as cell growth at 0.01 uM incubated for 48 hrs by sulforhodamine B assay relative to control; settings: HOP-92, 48 h, read-out: Activity
A549 = experiment: Cytotoxicity against human A549/ATCC cells assessed as cell growth at 100 uM incubated for 48 hrs by sulforhodamine B assay relative to control; settings: A549, 48 h, read-out: Activity
IGROV-1 = experiment: Cytotoxicity against human IGROV1 cells assessed as cell growth at 0.01 uM incubated for 48 hrs by sulforhodamine B assay relative to control; settings: IGROV-1, 48 h, read-out: Activity
HL-60(TB) [4] = experiment: Cytotoxicity against human HL-60(TB) cells incubated for 48 hrs by sulforhodamine B assay; settings: HL-60, 48 h
OVCAR-5 [5] = experiment: Cytotoxicity against human OVCAR5 cells assessed as cell growth at 0.01 uM incubated for 48 hrs by sulforhodamine B assay relative to control; settings: OVCAR-5, 48 h, read-out: Activity
NCI-H322M = experiment: Cytotoxicity against human NCI-H322M cells incubated for 48 hrs by sulforhodamine B assay
SK-OV-3 = experiment: Cytotoxicity against human SKOV3 cells assessed as cell growth at 10 uM incubated for 48 hrs by sulforhodamine B assay relative to control; settings: SK-OV-3, 48 h, read-out: Activity
NCI-H460 = experiment: Cytotoxicity against human NCI-H460 cells incubated for 48 hrs by sulforhodamine B assay; settings: NCI-H460, 48 h
Malme-3M = experiment: Cytotoxicity against human MALME-3M cells assessed as cell growth at 100 uM incubated for 48 hrs by sulforhodamine B assay relative to control; settings: read-out: Activity
HOP-62 = experiment: Cytotoxicity against human HOP62 cells assessed as cell growth at 0.1 uM incubated for 48 hrs by sulforhodamine B assay relative to control; settings: HOP-62, 48 h, read-out: Activity
NCI-H226 = experiment: Cytotoxicity against human NCI-H226 cells assessed as cell growth at 1 uM incubated for 48 hrs by sulforhodamine B assay relative to control; settings: NCI-H226, 48 h, read-out: Activity
HT-29 = experiment: Cytotoxicity against human HT-29 cells assessed as cell growth at 0.01 uM incubated for 48 hrs by sulforhodamine B assay relative to control; settings: HT-29, 48 h, read-out: Activity
SR = experiment: Cytotoxicity against human SR cells assessed as cell growth at 100 uM incubated for 48 hrs by sulforhodamine B assay relative to control; settings: read-out: Activity
EKVX [6] = experiment: Cytotoxicity against human EKVX cells assessed as cell growth at 0.01 uM incubated for 48 hrs by sulforhodamine B assay relative to control; settings: read-out: Activity
RXF 393 = experiment: Cytotoxicity against human RXF393 cells assessed as cell growth at 1 uM incubated for 48 hrs by sulforhodamine B assay relative to control; settings: RXF 393, 48 h, read-out: Activity
MCF7 [7] = experiment: Cytotoxicity against human MCF7 cells incubated for 48 hrs by sulforhodamine B assay; settings: MCF7, 48 h
SN12C = experiment: Cytotoxicity against human SN12C cells assessed as cell growth at 1 uM incubated for 48 hrs by sulforhodamine B assay relative to control; settings: read-out: Activity
SF-539 = experiment: Cytotoxicity against human SF539 cells assessed as cell growth at 100 uM incubated for 48 hrs by sulforhodamine B assay relative to control; settings: SF-539, 48 h, read-out: Activity
HCC 2998 = experiment: Cytotoxicity against human HCC2998 cells assessed as cell growth at 0.1 uM incubated for 48 hrs by sulforhodamine B assay relative to control; settings: HCC 2998, 48 h, read-out: Activity
HL-60(TB) [8] = experiment: Cytotoxicity against human HL-60(TB) cells assessed as cell growth at 0.1 uM incubated for 48 hrs by sulforhodamine B assay relative to control; settings: HL-60, 48 h, read-out: Activity
A498 [9] = experiment: Cytotoxicity against human A498 cells incubated for 48 hrs by sulforhodamine B assay; settings: A498, 48 h
RPMI-8226 [10] = experiment: Cytotoxicity against human RPMI8226 cells assessed as cell growth at 10 uM incubated for 48 hrs by sulforhodamine B assay relative to control; settings: RPMI-8226, 48 h, read-out: Activity
OVCAR-8 = experiment: Cytotoxicity against human OVCAR8 cells assessed as cell growth at 0.01 uM incubated for 48 hrs by sulforhodamine B assay relative to control; settings: OVCAR-8, 48 h, read-out: Activity
EKVX [11] = experiment: Cytotoxicity against human EKVX cells assessed as cell growth at 1 uM incubated for 48 hrs by sulforhodamine B assay relative to control; settings: read-out: Activity
RPMI-8226 [12] = experiment: Cytotoxicity against human RPMI8226 cells assessed as cell growth at 0.1 uM incubated for 48 hrs by sulforhodamine B assay relative to control; settings: RPMI-8226, 48 h, read-out: Activity
OVCAR-5 [13] = experiment: Cytotoxicity against human OVCAR5 cells assessed as cell growth at 1 uM incubated for 48 hrs by sulforhodamine B assay relative to control; settings: OVCAR-5, 48 h, read-out: Activity
HL-60(TB) [14] = experiment: Cytotoxicity against human HL-60(TB) cells assessed as cell growth at 100 uM incubated for 48 hrs by sulforhodamine B assay relative to control; settings: HL-60, 48 h, read-out: Activity
A498 [15] = experiment: Cytotoxicity against human A498 cells assessed as cell growth at 0.01 uM incubated for 48 hrs by sulforhodamine B assay relative to control; settings: A498, 48 h, read-out: Activity
OVCAR-3 = experiment: Cytotoxicity against human OVCAR3 cells assessed as cell growth at 100 uM incubated for 48 hrs by sulforhodamine B assay relative to control; settings: OVCAR-3, 48 h, read-out: Activity
[16] = read-out: LC50 (the source's name)
[17] = read-out: pLC50 (the source's name) (converted)

SMILES: COc1ccc(-c2nocc2-c2cc(OC)c(OC)c(OC)c2)cc1
- growth at 10 µM (MCF7 [1]): 14%
- growth at 0.1 µM (SNB-19 [2]): 69%
- growth at 10 µM (SNB-19 [3]): 29%
- growth at 0.01 µM (HOP-92): 98%
- growth at 100 µM (A549): 6%
- growth at 0.01 µM (IGROV-1): 97%
- GI50 (HL-60(TB) [4]; read-out: GI50): 48.8 nM
- CC50 (HL-60(TB) [4]; [16]): > 100000 nM
- TGI (HL-60(TB) [4]; read-out: TGI): 391 nM
- GI50 (HL-60(TB) [4]; read-out: pGI50 (converted)): 49 nM
- CC50 (HL-60(TB) [4]; [17]): > 100000 nM
- TGI (HL-60(TB) [4]; read-out: pTGI (converted)): 389 nM
- growth at 0.01 µM (OVCAR-5 [5]): 89%
- GI50 (NCI-H322M; read-out: GI50): 737 nM
- LC50 (NCI-H322M; read-out: LC50): > 100000 nM
- TGI (NCI-H322M; read-out: TGI): > 100000 nM
- GI50 (NCI-H322M; read-out: pGI50 (converted)): 741 nM
- LC50 (NCI-H322M; read-out: pLC50 (converted)): > 100000 nM
- TGI (NCI-H322M; read-out: pTGI): > 100000 nM
- growth at 10 µM (SK-OV-3): 32%
- GI50 (NCI-H460; read-out: GI50): 53.6 nM
- CC50 (NCI-H460; [16]): > 100000 nM
- TGI (NCI-H460; read-out: TGI): 12700 nM
- GI50 (NCI-H460; read-out: pGI50 (converted)): 53.7 nM
- CC50 (NCI-H460; [17]): > 100000 nM
- TGI (NCI-H460; read-out: pTGI (converted)): 12600 nM
- growth at 100 µM (Malme-3M): -31%
- growth at 0.1 µM (HOP-62): 58%
- growth at 1 µM (NCI-H226): 75%
- growth at 0.01 µM (HT-29): 98%
- growth at 100 µM (SR): -7%
- growth at 0.01 µM (EKVX [6]): 83%
- growth at 1 µM (RXF 393): -7%
- GI50 (MCF7 [7]; read-out: GI50): 40.8 nM
- LC50 (MCF7 [7]; read-out: LC50): > 100000 nM
- TGI (MCF7 [7]; read-out: TGI): > 100000 nM
- GI50 (MCF7 [7]; read-out: pGI50 (converted)): 40.7 nM
- LC50 (MCF7 [7]; read-out: pLC50 (converted)): > 100000 nM
- TGI (MCF7 [7]; read-out: pTGI): > 100000 nM
- growth at 1 µM (SN12C): 47%
- growth at 100 µM (SF-539): -15%
- growth at 0.1 µM (HCC 2998): 62%
- growth at 0.1 µM (HL-60(TB) [8]): 25%
- GI50 (A498 [9]; read-out: GI50): 33.6 nM
- LC50 (A498 [9]; read-out: LC50): > 100000 nM
- TGI (A498 [9]; read-out: TGI): 816 nM
- GI50 (A498 [9]; read-out: pGI50 (converted)): 33.9 nM
- LC50 (A498 [9]; read-out: pLC50 (converted)): > 100000 nM
- TGI (A498 [9]; read-out: pTGI (converted)): 813 nM
- growth at 10 µM (RPMI-8226 [10]): 16%
- growth at 0.01 µM (OVCAR-8): 103%
- growth at 1 µM (EKVX [11]): 37%
- growth at 0.1 µM (RPMI-8226 [12]): 82%
- growth at 1 µM (OVCAR-5 [13]): 53%
- growth at 100 µM (HL-60(TB) [14]): -15%
- growth at 0.01 µM (A498 [15]): 73%
- growth at 100 µM (OVCAR-3): -21%

From ChEMBL document CHEMBL4145521, “Regioselective synthesis of 3,4-diaryl-5-unsubstituted isoxazoles, analogues of natural cytostatic combretastatin A4” (Eur J Med Chem, 2018)
